Source: patent US9546158B2, “2,5-substituted pyrimidines” (Grünenthal GmbH, priority 2014, dated 2017)

Key:
human PDE4B1 = target: T1, human PDE4B1 (Homo sapiens, UniProt Q07343); test: TR-FRET assay using the LANCE Ultra cAMP kit to determine the activity of hPDE4B1; assay type: biochemical; conditions: test substrate concentration of 10 μM, read-out: Inhibition of PDE4B, Inhibition in %
T1 construct: host or cells: Sf9 cells
Description: TR-FRET Assay Using the LANCE® Ultra cAMP Kit to Determine the Activity of hPDE4B1
The effects of the compounds on the activity of the human PDE4B1 was quantified by measuring the production of 5′AMP from cAMP using a human recombinant enzyme expressed in Sf9 cells and the LANCE® Ultra cAMP kit, a TR-FRET detection method from PerkinElmer. The human PDE4B1 enzyme was purchased from SignalChem Lifesciences (Catalog #P92-31BG, Lot #H296-2).
The test compound, reference compound or water (control) was mixed with the enzyme (0.96 U) in a reaction buffer containing 50 mM Tris-HCl, 50 mM MgCl2 and 5 mM DTT (pH 8.5). Thereafter, the reaction was initiated by addition of 500 nM cAMP (substrate) and the mixture was incubated for 30 minutes at room temperature. For control basal measurements, the enzyme was omitted from the reaction mixture. After 30 minutes, the reaction was stopped and diluted by a factor of 100 with the reaction buffer supplemented with 500 μM IBMX. The fluorescence donor (europium chelate-labeled cAMP) and the fluorescence acceptor (anti-cAMP antibody labeled with the ULight™ dye) were then added together with 500 μM IBMX to a 10 μl aliquot. After 60 minutes, the fluorescence transfer corresponding to the amount of residual cAMP was measured at λex=337 nm, λem=620 nm and λem=665 nm using a microplate reader (PHERAstar, BMG). The enzyme activity was determined by dividing the signal measured at 665 nm by that measured at 620 nm (ratio) multiplied by 10000. The results were expressed as percent inhibition of the control enzyme activity. IC50 values (IC50=concentration causing a half-maximal inhibition of control specific activity) were derived from dose response measurements with ten different concentrations (n=3; N=1-3).

T1 sequence (Q07343 whole entry): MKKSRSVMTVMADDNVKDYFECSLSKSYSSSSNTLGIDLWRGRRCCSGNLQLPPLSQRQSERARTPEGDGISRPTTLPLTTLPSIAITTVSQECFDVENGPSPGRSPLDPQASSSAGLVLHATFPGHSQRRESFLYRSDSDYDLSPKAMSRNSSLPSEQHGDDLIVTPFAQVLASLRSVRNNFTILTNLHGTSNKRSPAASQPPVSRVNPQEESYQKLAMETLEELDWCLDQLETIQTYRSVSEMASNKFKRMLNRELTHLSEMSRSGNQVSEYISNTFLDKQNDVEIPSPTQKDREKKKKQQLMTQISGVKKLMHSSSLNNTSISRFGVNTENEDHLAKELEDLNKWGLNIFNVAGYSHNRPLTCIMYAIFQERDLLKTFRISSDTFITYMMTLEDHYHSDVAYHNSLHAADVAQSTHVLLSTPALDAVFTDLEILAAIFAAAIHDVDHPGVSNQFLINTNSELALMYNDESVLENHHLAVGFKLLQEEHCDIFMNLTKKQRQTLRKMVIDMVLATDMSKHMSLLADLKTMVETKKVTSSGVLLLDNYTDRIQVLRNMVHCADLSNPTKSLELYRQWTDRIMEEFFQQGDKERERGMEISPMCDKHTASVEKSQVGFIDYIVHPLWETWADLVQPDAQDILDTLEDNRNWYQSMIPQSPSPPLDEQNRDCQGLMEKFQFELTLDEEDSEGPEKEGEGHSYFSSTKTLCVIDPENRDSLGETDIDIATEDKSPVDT

Compound | inhibition at 10 µM (human PDE4B1) [%] | melting point [°C]
CN(CC(N)=O)C(=O)c1ccc2c(C3CC3)nn(-c3ncc(-c4cc(S(C)(=O)=O)ccc4F)cn3)c2c1 [Compound No. 59, N-(2-Amino-2-oxoethyl)-3-cyclopropyl-1-(5-(2-fluoro-5-(methylsulfonyl)phenyl)pyrimidin-2-yl)-N-methyl-1H-indazole-6-carboxamide] | 96 | 311 to 315
CCOc1ccc(F)c(-c2cnc(-n3nc(C)c4ccc(C(=O)N(C)CC(N)=O)cc43)nc2)c1 [Compound No. 60, N-(2-Amino-2-oxoethyl)-1-(5-(5-ethoxy-2-fluorophenyl)pyrimidin-2-yl)-N,3-dimethyl-1H-indazole-6-carboxamide] | 100 | 254 to 257
Cc1nn(-c2ncc(-c3cc(C(C)O)ccc3F)cn2)c2cc(C(=O)N(C)CC(N)=O)ccc12 (stereo not drawn) [Compound No. 61, N-(2-Amino-2-oxoethyl)-1-(5-(2-fluoro-5-(1-hydroxyethyl)phenyl)pyrimidin-2-yl)-N,3-dimethyl-1H-indazole-6-carboxamide] | 103 | 191 to 195
Cc1nn(-c2ncc(-c3cc(C(C)(C)O)ccc3F)cn2)c2cc(C(=O)N(C)CC(N)=O)ccc12 [Compound No. 62, N-(2-Amino-2-oxoethyl)-1-(5-(2-fluoro-5-(2-hydroxypropan-2-yl)phenyl)pyrimidin-2-yl)-N,3-dimethyl-1H-indazole-6-carboxamide] | 108 | 187 to 190
Cc1nn(-c2ncc(-c3cc(S(C)(=O)=O)ccc3F)cn2)c2cc(C(=O)N(C)CC(N)=O)ccc12 [Compound No. 63, N-(2-Amino-2-oxoethyl)-1-(5-(2-fluoro-5-(methylsulfonyl)phenyl)pyrimidin-2-yl)-N,3-dimethyl-1H-indazole-6-carboxamide] | 75 | 255 to 259
Cc1nn(-c2ncc(-c3cc([S+](C)[O-])ccc3F)cn2)c2cc(C(=O)N(C)CC(N)=O)ccc12 (stereo not drawn) [Compound No. 64, N-(2-Amino-2-oxoethyl)-1-(5-(2-fluoro-5-(methylsulfinyl)phenyl)pyrimidin-2-yl)-N,3-dimethyl-1H-indazole-6-carboxamide] | 42 | 164 to 168
